Ends that are not written are not given here.
Assays:
[1] = test system: full-length CRF2α receptor promoter (−3898 construct); test: Luciferase reporter expression from the full-length (−3898) CRF2α receptor promoter construct in transfected A7R5 cultures; assay type: cell-based, human; settings: for effect of antagonist on CRF or urocortin induced reduction in expression from the full length promoter: antagonist 1 μM plus CRF or urocortin 1 μM; for change in expression from the −3898 construct compared to untreated control cultures: agonist 1 μM alone, p<0.001
Procedure: (§1) In one embodiment, the present invention is a transfected cell line. One preferred method of creating such a cell line is described as follows: The constructs described above containing the human or rat promoter fragments placed upstream of the firefly luciferase gene are used to transfect immortalized cell lines. The constructs are transfected into CHO-K1 and A7R5 cell lines using lipofectamine 2000 (Life Technologies, Rockville, Md.). […] Both cell lines can be maintained at 37° C. with 5% CO2 in DMEM supplemented with 10% fetal bovine serum. Primary cultures of the central nervous system, as well as additional immortalized cell lines, are also appropriate for these transfections. To control for transfection efficiency, the cells are also co-transfected with the pRL-TK vector (Promega, Madison, Wis.). The pRL-TK vector contains the Renilla luciferase gene downstream of the herpes simplex virus thymidine kinase promoter, a promoter which provides low to moderate levels of expression. Cell lysates are assayed for total protein using the BCA assay (Pierce, Rockford, Ill.) to standardize for the protein extraction. The level of reporter gene expression from a standardized amount of cell extract is quantified by measuring luciferase activity using a luminometer (EG&G Wallac, Gaithersburg, Md.) and the dual-luciferase reporter assay system (Promega, Madison, Wis.). Firefly luciferase activity reflects CRF2α receptor promoter activity and Renilla luciferase activity is used to normalize data between experiments.
Using a similar experimental paradigm, we treated A7R5 cultures to determine what agents may alter expression from the CRF2α promoter. In addition to treating the cultures with CRF and urocortin (1 μM each), A7R5 cultures also were treated with either of the antagonists alone D-Phe or DMP696 (1 μM each), CRF plus D-Phe (1 μM each), CRF plus DMP696 (1 μM each), urocortin plus D-Phe (1 μM each), and with urocortin plus DMP696 (1 μM each). D-Phe is a non-selective CRF receptor antagonist, blocking both CRF1 and CRF2 receptors, whereas DMP696 is specific to CRF1 receptors. A7R5 cultures are known to express CRF2 receptors and should be a highly appropriate cell type to monitor CRF2α receptor expression.
In a separate experiment the effects of forskolin and dexamethasone were compared to DMSO control A7R5 cultures. […] These findings are consistent with those seen in the CHO-K1 cultures.

[2] = test system: full-length CRF2α receptor promoter (−3898 construct); test: Luciferase reporter expression from the full-length (−3898) CRF2α receptor promoter construct in transfected CHO-K1 cultures; assay type: cell-based, human; settings: CHO-K1, −3898 construct, forskolin 10 μM without IBMX, 24 hours; for change in expression from the full-length CRF2α promoter compared with control cultures: CRF, urocortin, dexamethasone 1 μM, vs untreated (CRF, urocortin) or DMSO control
Procedure: as §1
A stated goal for the constructs is the ability to identify agents that can alter expression of the CRF2α gene. […] Using methods previously described in this application, CHO-K1 cultures were transfected with the −3898 construct and the pRL-TK internal control construct. These cultures were then treated with either CRF (1 μM), urocortin (1 μM), dexamethasone (1 μM), forskolin (10 μM), or the appropriate control at the time of transfection. […]

Row | Compound | effect of antagonist on CRF or urocortin induced reduction in expression from the full length promoter [1] | mean expression (firefly luciferase activity normalized to Renilla luciferase) ([2]; DMSO control mean 0.411±0.004, p<0.001) | change in expression from the −3898 construct compared to untreated control cultures [1] | change in expression from the full-length CRF2α promoter compared with control cultures [2]
1 | COCC(COC)Nc1nc(C)nc2c(-c3ccc(Cl)cc3Cl)c(C)nn12 [DMP696] | did not affect either the CRF or urocortin induced reduction in expression | – | – | –
2 | C=C[C@@]1(C)CC(=O)[C@]2(O)[C@@]3(C)[C@@H](O)CCC(C)(C)[C@@H]3[C@H](O)[C@H](OC(C)=O)[C@@]2(C)O1 [forskolin] | – | 0.302±0.012 | – | –
3 | CRF: hormone and neurotransmitter; ligand for the CRF receptors | – | – | significantly decrease expression | did not significantly change expression
4 | D-Phe | brought expression from the full length promoter back to the levels seen in the untreated controls | – | – | –
5 | urocortin: neurotransmitter similar to CRF; ligand for the CRF receptors (DNPSLSIDLTFHLLRTLLELARTQSQRERAEQNRIIFDSV; ends and bridges not checked; UniProt P55089 83-122, looked up) | – | – | significantly decrease expression | did not significantly change expression

Source: patent US7531356B2, “Promoter sequences for corticotropin releasing-factor receptor CRF2α and method of identifying agents that alter the activity of the promoter sequences” (Wisconsin Alumni Research Foundation, priority 2000, dated 2009)
